The assay deals with T1, PriA_Blon (Bifidobacterium longum, UniProt Q8G4S5).
T1 sequence (Q8G4S5 1-241): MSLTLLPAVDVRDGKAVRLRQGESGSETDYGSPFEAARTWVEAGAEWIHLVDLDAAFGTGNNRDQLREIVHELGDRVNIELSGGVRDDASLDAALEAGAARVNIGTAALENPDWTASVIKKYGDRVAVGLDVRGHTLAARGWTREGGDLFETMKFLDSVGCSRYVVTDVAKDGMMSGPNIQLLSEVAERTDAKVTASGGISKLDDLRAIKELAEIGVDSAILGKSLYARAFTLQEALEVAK
Put plainly: steady-state kinetics, PRA isomerase. Type of assay: biochemical. Particulars: read-out: In vitro activity^a / PRA isomerase (TrpF) / K M μM.

Turning to `O=C(O)c1ccccc1N[C@@H]1O[C@H](COP(=O)(O)O)[C@@H](O)[C@H]1O` [PRA, N’-(5′-phosphoribosyl) anthranilate], the Km was 6.1 ± 0.1 µM.

For the origin of these results see article PMC4462073 (BMC Evolutionary Biology, 2015).
